Test results: ChEMBL document CHEMBL1148480, “Structure-activity studies of orexin a and orexin B at the human orexin 1 and orexin 2 receptors led to orexin 2 receptor selective and orexin 1 receptor preferring ligands” (J Med Chem, 2004)
Residues, ends and D or L forms follow the SMILES beside them.

Key:
[1] = biological target: T1, Orexin/Hypocretin receptor type 1 (Homo sapiens, UniProt O43613); assay: Effective agonist concentration to human orexin receptor type 1 determined using the Xlfit program; format: functional
T1 sequence (O43613 whole entry): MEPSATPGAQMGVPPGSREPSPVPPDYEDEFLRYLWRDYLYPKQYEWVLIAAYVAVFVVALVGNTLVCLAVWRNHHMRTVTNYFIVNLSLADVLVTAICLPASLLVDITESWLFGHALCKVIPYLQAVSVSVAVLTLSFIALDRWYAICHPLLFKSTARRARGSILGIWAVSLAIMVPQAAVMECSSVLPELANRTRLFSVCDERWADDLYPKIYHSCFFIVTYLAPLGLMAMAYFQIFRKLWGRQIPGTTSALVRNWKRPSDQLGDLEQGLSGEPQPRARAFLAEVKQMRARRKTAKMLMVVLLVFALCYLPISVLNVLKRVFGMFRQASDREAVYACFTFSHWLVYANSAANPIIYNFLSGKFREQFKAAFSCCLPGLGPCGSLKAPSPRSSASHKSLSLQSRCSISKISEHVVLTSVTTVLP

Orexin receptor type 2 = biological target: T2, Orexin receptor type 2 (Homo sapiens, UniProt O43614); assay: Effective agonist concentration to the human Orexin receptor type 2 was determined using the Xlfit program; format: functional
T2 sequence (O43614 whole entry): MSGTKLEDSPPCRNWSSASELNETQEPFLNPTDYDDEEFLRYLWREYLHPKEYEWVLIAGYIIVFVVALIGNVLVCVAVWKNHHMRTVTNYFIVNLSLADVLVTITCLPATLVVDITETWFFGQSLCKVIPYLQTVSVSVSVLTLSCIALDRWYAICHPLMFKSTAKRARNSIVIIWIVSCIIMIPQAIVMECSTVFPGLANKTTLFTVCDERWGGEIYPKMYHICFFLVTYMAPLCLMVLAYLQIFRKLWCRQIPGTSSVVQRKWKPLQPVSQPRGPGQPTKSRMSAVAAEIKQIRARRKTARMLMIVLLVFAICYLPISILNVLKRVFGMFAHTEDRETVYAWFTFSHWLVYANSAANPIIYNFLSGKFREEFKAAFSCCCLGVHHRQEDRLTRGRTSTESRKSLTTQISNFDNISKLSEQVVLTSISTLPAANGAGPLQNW

[2] = Ratio of orexin-1 receptor to orexin-2 receptor in human

Row | Structure (SMILES) | EC50 [1] [µM] | EC50 (Orexin receptor type 2) [µM] | Ratio [2]
1 | CC[C@H](C)[C@H](NC(=O)CNC(=O)[C@H](C)NC(=O)[C@H](C)NC(=O)[C@H](Cc1c[nH]cn1)NC(=O)[C@H](CC(N)=O)NC(=O)CNC(=O)[C@H](C)NC(=O)CNC(=O)[C@H](Cc1c[nH]cn1)NC(=O)[C@H](CC(C)C)NC(=O)[C@H](CC(C)C)NC(=O)[C@H](CCC(=O)O)NC(=O)[C@H](Cc1ccc(O)cc1)NC(=O)[C@H](CC(C)C)NC(=O)[C@H](CCCN=C(N)N)NC(=O)[C@H](CS)NC(=O)[C@H](CO)NC(=O)[C@H](CS)NC(=O)[C@@H](NC(=O)[C@H](CCCCN)NC(=O)[C@H](CCC(N)=O)NC(=O)[C@H](CCCN=C(N)N)NC(=O)[C@H](CS)NC(=O)[C@H](CS)NC(=O)[C@H](CC(=O)O)NC(=O)[C@@H]1CCCN1)[C@@H](C)O)C(=O)N[C@@H](CC(C)C)C(=O)N[C@H](C(=O)N[C@@H](CC(C)C)C(=O)O)[C@@H](C)O (H-PDCCRQKTCSCRLYELLHGAGNHAAGILTL-OH) |  | 0.4 | 1.6
2 | CC[C@H](C)[C@H](NC(=O)CNC(=O)[C@H](C)NC(=O)[C@H](C)NC(=O)[C@H](Cc1c[nH]cn1)NC(=O)[C@H](CC(N)=O)NC(=O)CNC(=O)[C@H](CO)NC(=O)[C@H](C)NC(=O)[C@H](CCC(N)=O)NC(=O)[C@@H]1CCCN1C(=O)[C@H](CC(C)C)NC(=O)[C@H](CCCN=C(N)N)NC(=O)[C@H](CCC(N)=O)NC(=O)[C@H](CC(C)C)NC(=O)[C@H](CCCN=C(N)N)NC(=O)CNC(=O)[C@H](CCC(N)=O)NC(=O)[C@H](CC(C)C)NC(=O)CN)C(=O)N[C@@H](CC(C)C)C(=O)N[C@H](C(=O)N[C@@H](CCSC)C(=O)O)[C@@H](C)O (H-GLQGRLQRLPQASGNHAAGILTM-OH) | > 1000 | 20.1 | > 50
3 | CC[C@H](C)[C@H](NC(=O)[C@@H]1CCCN1C(=O)[C@H](C)NC(=O)[C@H](C)NC(=O)[C@H](Cc1c[nH]cn1)NC(=O)[C@H](CC(N)=O)NC(=O)CNC(=O)[C@H](CO)NC(=O)[C@H](C)NC(=O)[C@H](CCC(N)=O)NC(=O)[C@H](CC(C)C)NC(=O)[C@H](CC(C)C)NC(=O)[C@H](CCCN=C(N)N)NC(=O)[C@H](CCC(N)=O)NC(=O)[C@H](CC(C)C)NC(=O)[C@H](CCCN=C(N)N)NC(=O)CNC(=O)[C@H](CCC(N)=O)NC(=O)[C@H](CC(C)C)NC(=O)CN)C(=O)N[C@@H](CC(C)C)C(=O)N[C@H](C(=O)N[C@@H](CCSC)C(=O)O)[C@@H](C)O (H-GLQGRLQRLLQASGNHAAPILTM-OH) | > 1000 | 9.43 | > 105
4 | CC[C@H](C)[C@H](NC(=O)CNC(=O)[C@H](C)NC(=O)[C@H](C)NC(=O)[C@H](Cc1c[nH]cn1)NC(=O)[C@H](CC(N)=O)NC(=O)CNC(=O)[C@H](CO)NC(=O)[C@H](C)NC(=O)[C@H](CCC(N)=O)NC(=O)[C@H](CC(C)C)NC(=O)[C@H](CC(C)C)NC(=O)[C@H](CCCN=C(N)N)NC(=O)[C@H](CCC(N)=O)NC(=O)[C@H](CC(C)C)NC(=O)[C@H](CCCN=C(N)N)NC(=O)CNC(=O)[C@H](CCC(N)=O)NC(=O)[C@H](C)NC(=O)CN)C(=O)N[C@@H](CC(C)C)C(=O)N[C@H](C(=O)N[C@@H](CCSC)C(=O)O)[C@@H](C)O (H-GAQGRLQRLLQASGNHAAGILTM-OH) |  | 0.83 | 8.9
5 | CC[C@H](C)[C@H](NC(=O)CNC(=O)[C@H](C)NC(=O)[C@H](C)NC(=O)[C@H](Cc1c[nH]cn1)NC(=O)[C@H](CC(N)=O)NC(=O)CNC(=O)[C@H](C)NC(=O)CNC(=O)[C@H](Cc1c[nH]cn1)NC(=O)[C@H](CC(C)C)NC(=O)[C@H](CC(C)C)NC(=O)[C@H](CCC(=O)O)NC(=O)[C@H](Cc1ccc(O)cc1)NC(=O)[C@H](CC(C)C)NC(=O)[C@H](CCCN=C(N)N)NC(=O)[C@H](CS)NC(=O)[C@H](CO)NC(=O)[C@H](CS)NC(=O)[C@@H](NC(=O)[C@H](CCCCN)NC(=O)[C@H](CCC(N)=O)NC(=O)[C@H](CCCN=C(N)N)NC(=O)[C@H](CS)NC(=O)[C@@H](N)CS)[C@@H](C)O)C(=O)N[C@@H](CC(C)C)C(=O)N[C@H](C(=O)N[C@@H](CC(C)C)C(=O)O)[C@@H](C)O (H-CCRQKTCSCRLYELLHGAGNHAAGILTL-OH) |  | 0.79 | 1

Other lines, results leading:

Row | EC50 [1] [µM] | EC50 (Orexin receptor type 2) [µM] | Ratio [2] | Structure (SMILES)
6 | > 1000 | 3.63 | > 275 | CC[C@H](C)[C@H](NC(=O)CNC(=O)[C@H](C)NC(=O)[C@H](C)NC(=O)[C@H](Cc1c[nH]cn1)NC(=O)[C@H](CC(N)=O)NC(=O)CNC(=O)[C@H](CO)NC(=O)[C@H](C)NC(=O)[C@H](CCC(N)=O)NC(=O)[C@H](CC(C)C)NC(=O)[C@H](CC(C)C)NC(=O)[C@H](CCCN=C(N)N)NC(=O)[C@H](CCC(N)=O)NC(=O)[C@H](CC(C)C)NC(=O)[C@H](CCCN=C(N)N)NC(=O)CNC(=O)[C@H](CCC(N)=O)NC(=O)[C@H](CC(C)C)NC(=O)CN)C(=O)N[C@@H](CC(C)C)C(=O)N[C@H](C(=O)N1CCC[C@H]1C(=O)O)[C@@H](C)O (H-GLQGRLQRLLQASGNHAAGILTP-OH)
7 |  | 0.16 | 7.5 | CC[C@H](C)[C@H](NC(=O)CNC(=O)[C@H](C)NC(=O)[C@H](C)NC(=O)[C@H](Cc1c[nH]cn1)NC(=O)[C@H](CC(N)=O)NC(=O)CNC(=O)[C@H](CO)NC(=O)[C@H](C)NC(=O)[C@H](CCC(N)=O)NC(=O)[C@H](CC(C)C)NC(=O)[C@H](CC(C)C)NC(=O)[C@H](CCCN=C(N)N)NC(=O)[C@H](CCC(N)=O)NC(=O)[C@H](CC(C)C)NC(=O)[C@H](CCCN=C(N)N)NC(=O)CNC(=O)[C@@H]1CCCN1C(=O)[C@H](CC(C)C)NC(=O)CN)C(=O)N[C@@H](CC(C)C)C(=O)N[C@H](C(=O)N[C@@H](CCSC)C(=O)O)[C@@H](C)O (H-GLPGRLQRLLQASGNHAAGILTM-OH)
8 |  | 0.19 | 23.5 | CC[C@H](C)[C@H](NC(=O)CNC(=O)[C@H](C)NC(=O)[C@H](C)NC(=O)[C@H](Cc1c[nH]cn1)NC(=O)[C@H](CC(N)=O)NC(=O)CNC(=O)[C@H](CO)NC(=O)[C@H](C)NC(=O)[C@H](CCC(N)=O)NC(=O)[C@H](CC(C)C)NC(=O)[C@H](CC(C)C)NC(=O)[C@H](CCCN=C(N)N)NC(=O)[C@H](CCC(N)=O)NC(=O)[C@H](CC(C)C)NC(=O)[C@H](CCCN=C(N)N)NC(=O)[C@@H]1CCCN1C(=O)[C@H](CCC(N)=O)NC(=O)[C@H](CC(C)C)NC(=O)CN)C(=O)N[C@@H](CC(C)C)C(=O)N[C@H](C(=O)N[C@@H](CCSC)C(=O)O)[C@@H](C)O (H-GLQPRLQRLLQASGNHAAGILTM-OH)
9 |  | 0.21 | 11 | CC[C@H](C)[C@H](NC(=O)CNC(=O)[C@H](C)NC(=O)[C@H](C)NC(=O)[C@H](Cc1c[nH]cn1)NC(=O)[C@H](CC(N)=O)NC(=O)CNC(=O)[C@H](CO)NC(=O)[C@H](C)NC(=O)[C@H](CCC(N)=O)NC(=O)[C@H](CC(C)C)NC(=O)[C@H](CC(C)C)NC(=O)[C@H](CCCN=C(N)N)NC(=O)[C@H](CCC(N)=O)NC(=O)[C@H](CC(C)C)NC(=O)[C@H](CCCN=C(N)N)NC(=O)[C@H](C)NC(=O)[C@H](CCC(N)=O)NC(=O)[C@H](CC(C)C)NC(=O)CN)C(=O)N[C@@H](CC(C)C)C(=O)N[C@H](C(=O)N[C@@H](CCSC)C(=O)O)[C@@H](C)O (H-GLQARLQRLLQASGNHAAGILTM-OH)
10 |  |  | 8.6 | CC[C@H](C)[C@H](NC(=O)CNC(=O)[C@H](C)NC(=O)[C@H](C)NC(=O)[C@H](Cc1c[nH]cn1)NC(=O)[C@H](CC(N)=O)NC(=O)CNC(=O)[C@H](CO)NC(=O)[C@H](C)NC(=O)[C@H](C)NC(=O)[C@H](CC(C)C)NC(=O)[C@H](CC(C)C)NC(=O)[C@H](CCCN=C(N)N)NC(=O)[C@H](CCC(N)=O)NC(=O)[C@H](CC(C)C)NC(=O)[C@H](CCCN=C(N)N)NC(=O)CNC(=O)[C@H](CCC(N)=O)NC(=O)[C@H](CC(C)C)NC(=O)CN)C(=O)N[C@@H](CC(C)C)C(=O)N[C@H](C(=O)N[C@@H](CCSC)C(=O)O)[C@@H](C)O (H-GLQGRLQRLLAASGNHAAGILTM-OH)
11 |  |  | 3.2 | CC[C@H](C)[C@H](NC(=O)CNC(=O)[C@H](C)NC(=O)[C@H](C)NC(=O)[C@H](Cc1c[nH]cn1)NC(=O)[C@H](CC(N)=O)NC(=O)CNC(=O)[C@H](C)NC(=O)CNC(=O)[C@H](Cc1c[nH]cn1)NC(=O)[C@H](CC(C)C)NC(=O)[C@H](CC(C)C)NC(=O)[C@H](CCC(=O)O)NC(=O)[C@H](Cc1ccc(O)cc1)NC(=O)[C@H](CC(C)C)NC(=O)[C@H](CCCN=C(N)N)NC(=O)[C@H](CS)NC(=O)[C@H](CO)NC(=O)[C@H](CS)NC(=O)[C@@H](N)[C@@H](C)O)C(=O)N[C@@H](CC(C)C)C(=O)N[C@H](C(=O)N[C@@H](CC(C)C)C(=O)O)[C@@H](C)O (H-TCSCRLYELLHGAGNHAAGILTL-OH)
12 |  |  | > 1750 | CC[C@H](C)[C@H](NC(=O)CNC(=O)[C@H](C)NC(=O)[C@H](C)NC(=O)[C@H](Cc1c[nH]cn1)NC(=O)[C@H](CC(N)=O)NC(=O)CNC(=O)[C@H](CO)NC(=O)[C@H](C)NC(=O)[C@H](CCC(N)=O)NC(=O)[C@H](CC(C)C)NC(=O)[C@H](CC(C)C)NC(=O)[C@H](CCCN=C(N)N)NC(=O)[C@H](CCC(N)=O)NC(=O)[C@H](CC(C)C)NC(=O)[C@@H](N)CCCN=C(N)N)C(=O)N[C@@H](CC(C)C)C(=O)N[C@H](C(=O)N[C@@H](CCSC)C(=O)O)[C@@H](C)O (H-RLQRLLQASGNHAAGILTM-OH)
